Reference: patent US10006920B2, “Diagnostic kit for diagnosis of abnormal protein aggregation- or misfolding-related diseases using dissociation of protein aggregates” (KOREA INSTITUTE OF SCIENCE AND TECHNOLOGY, priority 2013, dated 2018)
Values joined by “and” are separate entries in the source; they are usually repeats but may differ in a detail not shown here. Equal values may be shown once. “Also recorded” adds a separate entry of the source.

Columns and labels:
[1] = tested on: β-amyloid oligomers, profibrils, fibrils and plaque aggregates; assay: SDS-PAGE analysis of dissociation of β-amyloid aggregates; type: biochemical
[2] = tested on: β-amyloid oligomers, profibrils, fibrils and plaques; assay: Electron microscopic observation of β-amyloid aggregates; type: biochemical; conditions: electron microscopy
[3] = molecular target: T1, β-amyloid (Homo sapiens, UniProt P05067); assay: β-amyloid monomer concentration in plasma and whole blood treated with EPPS (APP/PS1/Tau transgenic mouse); design: tissue Jackson Laboratory (mice); host or cells: plasma / whole blood of 5-month-old female APP/PS1/Tau transgenic mice, treated ex vivo with EPPS; conditions: 5-month-old APP/PS1/Tau mice
T1 sequence (P05067 672-713 limits assumed): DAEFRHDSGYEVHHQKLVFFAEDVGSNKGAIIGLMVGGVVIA
Description: 5-month-old female APP/PS1/Tau transgenic mice were used as test animals.
The transgenic APP/PS1/Tau mouse model was B6;129-Psen1tm1MpmTg(APPSwe,tauP301L)1Lfa/Mmjax purchased from the Jackson Laboratory (USA) and maintained and used for experiments under the guideline of the Animal Care and Use Committee.
Blood was collected in K2 EDTA-treated vacuum tube containing Roche Complete Mini (protease inhibitor) solution and centrifuged. Plasma separated from the cell fraction was collected in an Eppendorf tube and prepared into 0.1-mL samples, which were used immediately or stored at −80° C. for later use. Whole blood was collected in an Eppendorf tube by treating with EPPS and separating plasma from the cell fraction and prepared into 0.1-mL samples, which were used immediately for β-amyloid concentration measurement or stored at −80° C. for later use.
The plasma was treated with water (control group) or EPPS (EPPS group).
As for the EPPS group, 15 μL of the plasma was treated with 5 μL of 400 mM EPPS, so that the final EPPS concentration was 100 mM. As for the control group, 15 μL of plasma was treated with 5 μL of PBS, so that the concentration was the same as that of the EPPS group. […]
The whole blood was analyzed after treating with EPPS. […]
The β-amyloid concentration in each plasma was measured using detection units 1 and 2 and MB/MP was calculated by a calculation unit using [Equation 2].

[4] = molecular target: T1, β-amyloid; assay: Plasma β-amyloid concentration before and after administration of EPPS, B−A by Equation 1; type: in vivo, APP/PS1 transgenic mice; design: tissue Jackson Laboratory (mice); host or cells: plasma / whole blood of female APP/PS1 transgenic mice; B-A (1 day) / B-A (5 days) / B-A (19 days) / B-A (33 days): unit not given here; conditions: for B-A (1 day): average of three measurements
Experimental: Female APP/PS1 transgenic mice were used as test animals. A total of 32 mice were used (eleven 5-6 month-olds and twenty-one 7.2-8.6 and 13 month-olds). 5-6-month-old mice were used since β-amyloid plaque accumulation in the brain begins from 5 months.
The transgenic APP/PS1 mouse model was B6C3-Tg(APPswe, PSEN1dE9)85Dbo/Mmjax purchased from the Jackson Laboratory (USA) and maintained and used for experiments under the guideline of the Animal Care and Use Committee.
EPPS was administered to each of the 32 mice at a dose of 1,000 mg/kg/day.
Blood was drawn from the of the retro-orbital venous plexus of the mouse using a microtube (Marienfeld, Germany) treated with 80 IU/mL heparin before and after the administration of EPPS. The blood drawing after the administration of EPPS was performed 1 day, 5 days, 19 days and 33 days after the administration of EPPS.
The blood was collected in an Eppendorf tube and centrifuged at 13,500 rpm and 4° C. for 5 minutes. Plasma separated from the cell fraction was collected in an Eppendorf tube for immediate use or for storage at −80° C. for later use.
β-Amyloid concentration in the plasma collected before and after the administration of EPPS was measured by detection units 1 and 2 of a kit. B−A was calculated by a calculation unit from the measured concentrations using [Equation 1].

[5] = molecular target: T1, β-amyloid; assay: β-amyloid concentration in plasma and whole blood treated with EPPS (APP/PS1 transgenic mouse); design: tissue Jackson Laboratory (mice); host or cells: plasma / whole blood of female APP/PS1 transgenic mice; conditions: 9-month-old APP/PS1 mice
Experimental: 9-month-old female APP/PS1 transgenic mice were used as test animals.
The transgenic APP/PS1 mouse model was B6C3-Tg(APPswe,PSEN1dE9)85Dbo/Mmjax purchased from the Jackson Laboratory (USA) and bred and used for experiments under the guideline of the Animal Care and Use Committee.
Sample treatment and β-amyloid concentration measurement were conducted in the same manner as in Example 1.

[6] = EPPS-treated whole blood / EPPS-treated plasma (Equation 2)
[7] = control plasma / EPPS-treated plasma (Equation 3)
[8] = Aged (7.2 months or older) female APP/PS1 mice, one value per mouse, EPPS 1,000 mg/kg/day, plasma β-amyloid after minus before

**Q.** Which “Dissociation of β-amyloid aggregates (bands of Aβ 40 and Aβ 42 monomers, 4.3-4.5 kD)” value [1] does the source give for `O=S(=O)(O)CCCN1CCN(CCO)CC1` [EPPS, 4-(2-Hydroxyethyl)-1-piperazinepropanesulfonic acid] here?
**A.** has the activity of dissociating β-amyloid oligomers, profibrils, fibrils and plaque aggregates; also recorded: has the activity of dissociating β-amyloid dimer, oligomer, profibril, fibril and plaque aggregates

**Q.** And the “Dissociation of β-amyloid aggregates by electron microscopic observation” value [2]?
**A.** no β-amyloid aggregates are observed; also recorded: confirms the activity of dissociating β-amyloid dimers, oligomers, profibrils, fibrils and plaques

**Q.** And the MB/MP [3, 6]?
**A.** 0.61

**Q.** And the UP/MP [3, 7]?
**A.** 0.92

**Q.** And the “β-amyloid 42 concentration in plasma after administration (FIG. 3a)” value ([4]; 5-6-month-old (young) and 7.2-month-old (aged) mice, before vs 24 hours after)?
**A.** significant increase

**Q.** And the “β-amyloid 42 concentration in plasma, course over time (FIG. 3b)” value ([4]; 7.2-month-old (aged) mice, 1, 5, 19 and 33 days after administration)?
**A.** significant increase in β-amyloid 42 concentration followed by decrease

**Q.** And the “B−A value (sign)” value ([4]; 24 hours (1 day) after administration of EPPS, all the mice)?
**A.** positive (+)

**Q.** And the “B-A (5 days)” value [4, 8]?
**A.** 93.531 and 163.986 and 51.584 and 76.049 and 170.979 and 86.122 and 108.916 and 311.820 and 134.965 and 170.656 and 207.692 and 55.115 and 209.711 and 88.441 and 105.420 and 130.096 and 118.007 and 70.105 and 185.315 and 66.259 and 214.549

**Q.** And the “B-A (19 days)” value [4, 8]?
**A.** 298.504 and 52.809 and 70.596 and 86.108 and 129.025 and 57.487 and 53.294 and 43.826 and 101.221 and 82.444 and 136.814 and 131.569 and 88.695 and 61.725 and 27.070 and 32.708 and 22.406 and 20.515 and 59.409

**Q.** And the “B-A (33 days)” value [4, 8]?
**A.** 114.33 and 23.509 and 148.154 and 21.599 and 71.410 and 4.797 and 24.240 and 11.079 and 42.621 and 31.969 and 60.179 and 39.237 and 23.448 and 33.902 and 41.596 and 59.545 and 31.762 and 51.292 and 78.101

**Q.** What about the “B-A (1 day)” value [4, 8] of the same molecule?
**A.** 78.802 and 41.434 and 20.276 and 12.442 and 15.385 and 7.373 (2×) and 182.867 and 10.138 and 13.364 and 11.060 and 4.147 and 140.559 and 16.129 and 194.580 and 18.894 and 6.119 and 345.979 and 19.816 and 156.294 and 180.594

**Q.** And the “B-A (1 day)” value ([4]; Young (5-6 months) female APP/PS1 mice, one value per mouse, EPPS 1,000 mg/kg/day, plasma β-amyloid after minus before)?
**A.** 52.151 and 22.674 and 98.547 and 20.430 and 191.398 and 124.731 and 108.065 and 102.326 and 89.535 and 94.186 and 146.802

**Q.** What about the “B−A value, course over time” value ([4]; since 19 days after the administration of EPPS) of the same molecule?
**A.** began to decrease

**Q.** What about the MB/MP [5, 6] of the same molecule?
**A.** 0.79

**Q.** And the UP/MP [5, 7]?
**A.** 0.99

**Q.** And the “MP Aβ concentration (monomer concentration in plasma of the EPPS group)” value ([5]; plasma treated with EPPS, average of three measurements)?
**A.** 151.58 ± 24.03
